Reference: the supplement of paper PMC6045584
± gives the standard deviation of the averaged measurements.

These test systems were tested with CCC1=C[C@@H]2CN(C1)Cc1c([nH]c3ccccc13)[C@@](C(=O)OC)(c1cc3c(cc1OC)N(C)[C@H]1[C@@](O)(C(=O)OC)[C@H](OC(C)=O)[C@]4(CC)C=CCN5CC[C@]31[C@@H]54)C2 [VINORELBINE] (assay: surviving fraction relative to DMSO-only wells; higher = less growth inhibition). Conditions: 0.5 nM; exposure time: 5 days.
Method in brief: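 Viability was determined by CellTiter-Glo luminescence, expressed as surviving fraction normalised to the median of DMSO-only wells. The cells were log-phase tumour cell lines seeded at 250–500 per well in 384-well plates and, after 24 hours, exposed continuously for five days to inhibitors at 0.5, 1, 5, 10, 50, 100, 500 and 1000 nM. Three screens per line were run, keeping only lines with replicate Pearson r >0.7 and median Z' >0.3.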

22RV1 PROSTATE and 93VU HEADNECK are within error of each other in surviving fraction: 1.04 ± 0.039 for the first, 1.02 ± 0.11 for the second.

143B BONE and A549 LUNG are within error of each other in surviving fraction: 1 ± 0.02 for the first, 0.982 ± 0.049 for the second.

ASKA SYNOVIAL and BT20 BREAST are within error of each other in surviving fraction: 0.912 ± 0.086 for the first, 1.16 ± 0.21 for the second.

BT549 BREAST and CADOES1 SOFT TISSUE are within error of each other in surviving fraction: 1.13 ± 0.039 for the first, 0.972 ± 0.19 for the second.

CAL51 BREAST and CAL120 BREAST are within error of each other in surviving fraction: 0.926 ± 0.047 for the first, 0.969 ± 0.032 for the second.

Compared with CASKI CERVIX, CHLA90 AUTONOMIC GANGLIA is higher in surviving fraction: 0.919 ± 0.041 for the first, 1.009 ± 0.01 for the second.

CME SYNOVIAL and COLO320DM LARGE INTESTINE are within error of each other in surviving fraction: 1.11 ± 0.17 for the first, 1 ± 0.036 for the second.

DU4475 BREAST and H23 LUNG are within error of each other in surviving fraction: 0.973 ± 0.088 for the first, 1.03 ± 0.046 for the second.

HCC38 BREAST and HCC70 BREAST are within error of each other in surviving fraction: 1.19 ± 0.19 for the first, 1.04 ± 0.032 for the second.

HCC78 LUNG and HCC202 BREAST are within error of each other in surviving fraction: 0.958 ± 0.18 for the first, 1.25 ± 0.24 for the second.

HCC1806 BREAST and HCC1954 BREAST are within error of each other in surviving fraction: 0.976 ± 0.16 for the first, 1.08 ± 0.15 for the second.

HCT15 LARGE INTESTINE and HELA CERVIX are within error of each other in surviving fraction: 1.1 ± 0.066 for the first, 1.05 ± 0.054 for the second.

First: HMLE3 BREAST
Second: HMT3552 BREAST
The surviving fraction of the first is lower: 0.993 ± 0.017 for the first, 1.05 for the second.

HOS BONE and HOSMNG BONE are within error of each other in surviving fraction: 1.05 ± 0.05 for the first, 0.938 ± 0.14 for the second.

HS57T BREAST and HS578T BREAST are within error of each other in surviving fraction: 1.01 ± 0.08 for the first, 1.13 ± 0.09 for the second.

Compared with HSSYII SYNOVIAL, HT1080 SOFT TISSUE is higher in surviving fraction: 0.891 ± 0.082 for the first, 1.02 ± 0.02 for the second.

Same assay, conditions: 1 nM; exposure time: 5 days

22RV1 PROSTATE and 93VU HEADNECK are within error of each other in surviving fraction: 1.01 ± 0.057 for the first, 1.02 ± 0.19 for the second.

143B BONE and A549 LUNG are within error of each other in surviving fraction: 1.016 ± 0.0057 for the first, 0.989 ± 0.049 for the second.

ASKA SYNOVIAL and BT20 BREAST are within error of each other in surviving fraction: 0.846 ± 0.075 for the first, 0.875 ± 0.22 for the second.

Compared with BT549 BREAST, CADOES1 SOFT TISSUE is lower in surviving fraction: 1.21 ± 0.15 for the first, 0.882 ± 0.043 for the second.

CAL51 BREAST and CAL120 BREAST are within error of each other in surviving fraction: 0.945 ± 0.016 for the first, 0.9515 ± 0.0038 for the second.

Compared with CASKI CERVIX, CHLA90 AUTONOMIC GANGLIA is higher in surviving fraction: 0.911 ± 0.046 for the first, 1.05 ± 0.036 for the second.

CME SYNOVIAL and COLO320DM LARGE INTESTINE are within error of each other in surviving fraction: 1.09 ± 0.11 for the first, 1.08 ± 0.059 for the second.

DU4475 BREAST and H23 LUNG are within error of each other in surviving fraction: 1.01 ± 0.025 for the first, 0.9937 ± 0.0096 for the second.

HCC38 BREAST and HCC70 BREAST are within error of each other in surviving fraction: 1.12 ± 0.3 for the first, 1.01 ± 0.014 for the second.

Compared with HCC78 LUNG, HCC202 BREAST is higher in surviving fraction: 0.806 ± 0.26 for the first, 1.21 ± 0.12 for the second.

Compared with HCC1806 BREAST, HCC1954 BREAST is lower in surviving fraction: 1.02 ± 0.075 for the first, 0.9287 ± 0.0046 for the second.

HCT15 LARGE INTESTINE and HELA CERVIX are within error of each other in surviving fraction: 1.06 ± 0.043 for the first, 1.02 ± 0.044 for the second.

Going from HMLE3 BREAST to HMT3552 BREAST, the surviving fraction rises from 0.965 ± 0.053 to 1.05.

HOS BONE and HOSMNG BONE are within error of each other in surviving fraction: 1.01 ± 0.011 for the first, 0.956 ± 0.1 for the second.

HS57T BREAST and HS578T BREAST are within error of each other in surviving fraction: 0.957 ± 0.03 for the first, 0.976 ± 0.17 for the second.

Compared with HSSYII SYNOVIAL, HT1080 SOFT TISSUE is higher in surviving fraction: 0.836 ± 0.032 for the first, 1.02 ± 0.016 for the second.
